Key:
LDL receptor null mice = assay: HDL protective capacity in LDL receptor null mice given peptide in drinking water; format: in vivo; settings: 0.25 or 0.5 mg per ml of drinking water, 24 or 48 hrs, mouse HDL at 100 μg/ml
Procedure: FIG. 3 illustrates the effect of apo J peptide mimetics on HDL protective capacity in LDL receptor null mice. The values are the mean±SD of the number of migrated monocytes in 9 high power fields from each of quadruple assay wells.
D-4F designated as F, or the apoJ peptide made from D amino acids (D-J336, designated as J) was added to the drinking water of LDL receptor null mice (4 per group) at 0.25 or 0.5 mg per ml of drinking water. After 24- or 48-hrs blood was collected from the mice and their HDL was isolated and tested for its ability to protect against LDL-induced monocyte chemotactic activity. Assay controls included culture wells that received no lipoproteins (no addition), or control human LDL alone (designated as LDL, 200µg cholesterol/ml), or control LDL+ control human HDL (designated as +HDL, 350µg HDL cholesterol). For testing the mouse HDL, the control LDL was added together with mouse HDL (+F HDL or +J HDL) to artery wall cell cultures. The mouse HDL was added at 100 μg cholesterol/ml respectively.

ApoE null mice [1] = assay: Protection against LDL-induced monocyte chemotactic activity by HDL from apo E null mice given oral peptides; format: in vivo, mouse; settings: ApoE null mice, peptide in drinking water 24 hrs; murine HDL at 100 μg/ml
Source text: FIG. 4 illustrates protection against LDL-induced monocyte chemotactic activity by HDL from apo E null mice given oral peptides. The values are the mean±SD of the number of migrated monocytes in 9 high power fields from each of quadruple assay wells. Asterisks indicate significant difference (p<0.05) as compared to No Peptide mHDL.
After 24 hrs blood was collected, plasma fractionated by FPLC and fractions containing LDL (designated as mLDL for murine LDL) and fractions containing HDL (designated as mHDL) were separately pooled and HDL protective capacity against LDL oxidation as determined by LDL-induced monocyte chemotactic activity was determined. For the assay controls the culture wells received no lipoproteins (no additions), mLDL alone (at 200 μg cholesterol/ml), or mLDL+ standard normal human HDL (designated as Cont. h HDL, at 350 μg HDL cholesterol/ml).
For testing the murine HDL, mLDL together with murine HDL (+F mHDL or +J mHDL) were added to artery wall cell cultures. […] The murine HDL was used at 100µg cholesterol/ml.

ApoE null mice [2] = assay: HDL and pre-beta HDL from apoE null mice fed solution-phase synthesized D-4F: inhibition of LDL-induced monocyte chemotaxis; format: in vivo, mouse; settings: ApoE null mice fed 5 micrograms in chow, bled after twelve hours; product of solution phase synthesis
Source text: ApoE null mice were fed 5 micrograms of the D-4F synthesized as described above (Frgmnt) or the mice were given the same amount of mouse chow without D-4F (Chow). Twelve hours after the feeding was started, the mice were bled and their plasma was fractionated on FPLC.

ApoE null mice [3] = assay: HDL Inflammatory Index, D-4F versus Reverse D-4F by stomach tube; format: in vivo, mouse; settings: apoE null mice, 0, 3, 6, 12 or 25 micrograms by stomach tube, blood 7 hours later
Procedure: Female apoE null mice were administered by stomach tube 0, 3, 6, 12, or 25 micrograms of D-4F or Reverse D-4F in 100 microliters of water. Blood was obtained 7 hours later and the plasma was fractionated by FPLC. A standard control human LDL was added to human artery wall cells at a concentration of 100 micrograms of LDL-cholesterol/mL (LDL). The resulting monocyte chemotactic activity was normalized to 1.0. […] The resulting monocyte chemotactic activity was normalized to that of the LDL added without HDL. The resulting value is the HDL Inflammatory Index. The results shown are the Mean±S.D. for the data from three separate experiments.

ApoE null mice [4] = assay: Trabecular bone mineral density, peptide in drinking water; format: in vivo, mouse; settings: drinking water for 6 weeks
Obese Zucker rats = assay: Plasma glucose and lipid hydroperoxides (LOOH) in obese Zucker rats; format: in vivo, rat; settings: Obese Zucker rats 26 weeks of age, 5.0 mg/kg/day intraperitoneal, 10 days
Procedure: Obese Zucker rats 26 weeks of age were bled and then treated with daily intraperitoneal injections of D-4F (5.0 mg/kg/day). After 10 days the rats were bled again plasma glucose and lipid hydroperoxides (LOOH) were determined. *p=0.027; **p=0.0017.

ApoE null mice [5] = assay: HDL function after D-4F and/or statin in the drinking water; format: in vivo, mouse; settings: 1 μg/ml in the drinking water for 24 hours
[6] = mouse, in vivo
[7] = in vivo; cited from earlier work

time after an oral dose at which essentially non-detectable in the circulation ([6]; po): 6 h
Compound: CC(=O)N[C@H](CC(=O)O)C(=O)N[C@H](Cc1c[nH]c2ccccc12)C(=O)N[C@H](Cc1ccccc1)C(=O)N[C@H](CCCCN)C(=O)N[C@H](C)C(=O)N[C@H](Cc1ccccc1)C(=O)N[C@H](Cc1ccc(O)cc1)C(=O)N[C@H](CC(=O)O)C(=O)N[C@H](CCCCN)C(=O)N[C@@H](C(=O)N[C@H](C)C(=O)N[C@H](CCC(=O)O)C(=O)N[C@H](CCCCN)C(=O)N[C@H](Cc1ccccc1)C(=O)N[C@H](CCCCN)C(=O)N[C@H](CCC(=O)O)C(=O)N[C@H](C)C(=O)N[C@H](Cc1ccccc1)C(N)=O)C(C)C [Peptide D-4F, Ac-D-W-F-K-A-F-Y-D-K-V-A-E-K-F-K-E-A-F-NH2]
activity of mouse HDL in preventing control LDL from inducing artery wall cells to produce monocyte chemotactic activity (LDL receptor null mice): as active as 350 μg/ml of control human HDL
activity of murine HDL against LDL-induced monocyte chemotactic activity (ApoE null mice [1]): as active as 350µg/ml of normal human HDL
biological activity in producing HDL and pre-beta HDL that inhibit LDL-induced monocyte chemotaxis (ApoE null mice [2]): very biologically active in producing HDL and pre-beta HDL that inhibit LDL-induced monocyte chemotaxis
biological activities (HDL Inflammatory Index), D-4F versus Reverse D-4F (ApoE null mice [3]): not significantly different
trabecular bone mineral density (ApoE null mice [4]): dramatically increased trabecular bone mineral density
mitigation of symptoms of diabetes (plasma glucose, lipid hydroperoxides) (Obese Zucker rats): effective in mitigating symptoms of diabetes
HDL function, D-4F alone (ApoE null mice [5]): did not significantly improve HDL function
association with pre-beta HDL and HDL [6]: rapidly associates with pre-beta HDL and HDL
side effects [7]: no side effects

Source: US20110182992A1, “PEPTIDES AND PEPTIDE MIMETICS TO TREAT PATHOLOGIES ASSOCIATED WITH EYE DISEASE” (priority 2008, published 2011)
